# Literature values as cited in US7767227B2, “Galenical form for oral administration with prolonged release of molsidomine” (Therabel Pharmaceuticals Limited, priority 2000, dated 2010).
# Read-outs that look alike come from different tables or passages of the source.
compound,measurement,setting,value
"CCOC(=O)[N-]c1cn(N2CCOCC2)n[o+]1 [Molsidomine, N-(ethoxycarbonyl)-3-(4-morpholinyl)sydnone imine]",period of action,4 mg dose,4 to 5 h
same,period of action,8 mg dose,10 to 12 h
